Test results published in patent US6815464B2, “Carbamate compounds for use in the treatment of pain” (Ortho-McNeil Pharmaceutical, Inc., priority 2001, dated 2004).
Marks after values point to notes of the source that are not given here.

System: sciatic nerve loose ligation in rats
Assay: Bennett model (Chronic Constrictive Injury), thermal stimulation, paw-withdrawal latency
Format: in vivo
Conditions: rat; for Antihyperalgesic Effectiveness (% Effective): vs vehicle control; for anti-hyperalgesic effect against a thermal stimulation challenge: p.o., summary statement in words
From the text: Bennett Model (Chronic Constrictive Injury)
The Bennett model consists of sciatic nerve loose ligation in rats (Bennett G J and Xie Y K, A peripheral mononeuropathy in rat that produces disorders of pain sensation like those seen in man, Pain, 1988, 33, 87-107). Although the pharmacological profile of the spontaneous pain, protective posture and allodynia (minor) is similar to that of clinical neuropathic pain, the loose chronic ligature of sciatic nerve in the Bennett model causes greater thermal hyperalgesia than mechanical allodynia due to its inflammatory mechanism. The loose ligation causes the constriction/swelling followed by inflammation at the ligation site, a condition most commonly associated with various types of pain. The behavioral response to the ligature is one of hyperalgesia. Thus, anti-hyperalgesia reduces chronic signs of pain hypersensitivity. Therefore, the Bennett model is used to evaluate antinociceptive pain (Cui J G, Possible role of inflammatory mediators in tactile hypersensitivity in rat models of mononeuropathy, Pain, 2000, 88 (3), 239-248; Lovell J A, Changes in Spinal Serotonin Turnover Mediate Age-Related Differences in the Behavioral Manifestations of Peripheral Nerve Injury, Pharmacol. Biochem. Behav., 2000, 66 (4), 873-878; Yasuda T, The novel analgesic compound OT-7100[5-n-butyl-7-(3,4,5-trimethoxybenzoylamino)pyrazolo[1,5a]pyrimidine] attenuates mechanical nociceptive responses in animal models of acute and peripheral neuropathic hyperalgesia, J. Pharmacol., 1999, 79 (1), 65-73; Toda K, Antinociceptive effects of neurotropin in a rat model of painful peripheral mononeuropathy, Life Sci., 1998, 62 (10), 913-921; Munglani R, Neuropeptide changes persist in spinal cord despite resolving hyperalgesia in a rat model of mononeuropathy, Brain Res., 1996, 743, 1 (2), 102-108).
[…] The anti-hyperalgesia effect was assessed at 30, 60, and 90 minutes after the oral administration.
Rats (180-220 g body weight) were anesthetized (sodium pentobarbital, 40 mg/kg, ip) and an incision was made at the mid-thigh level to expose the common left sciatic nerve. Four ligatures spaced 1 mm apart were loosely tied around the sciatic nerve. The wound was then sutured. The rats received an i.m. injection of 50,000 IU Penicillin and were allowed to recover after this procedure. At least one week after the surgery, when the chronic state was fully established, rats were consecutively submitted to thermal stimulation of both the non-lesioned and the lesioned hind-paws. The apparatus (UgoBasil, Reference: 7371) consists of 6 individual Plexiglas boxes (17×13×13 cm) placed upon an elevated glass floor. The rat was placed in the box and allowed to habituate for 10 minutes. A mobile infrared radiant source (setting 20) was then focused under the non-lesioned and lesioned hind-paws and the paw-withdrawal latencies in seconds were automatically recorded. The test was performed in a blinded fashion. The increased latency in treated animals as compared to control animals (those receiving only vehicle) was expressed as % of effectiveness of the drug. Data were analyzed by comparing the treated lesion group with controls using unpaired Student's t-test.

[1] = 10 mg/kg p.o., 60 min after administration
[2] = 10 mg/kg p.o., 90 min after administration
[3] = 30 mg/kg p.o., 30 min after administration
[4] = 30 mg/kg p.o., 60 min after administration
[5] = 30 mg/kg p.o., 90 min after administration
[6] = 300 mg/kg p.o., 30 min after administration
[7] = 300 mg/kg p.o., 60 min after administration
[8] = 300 mg/kg p.o., 90 min after administration

NC(=O)OC[C@H](OC(N)=O)c1ccccc1Cl [Formula (IIb)]
Antihyperalgesic Effectiveness (% Effective) [1]: 121%
Antihyperalgesic Effectiveness (% Effective) [2]: 50%
Antihyperalgesic Effectiveness (% Effective) [3]: 61%
Antihyperalgesic Effectiveness (% Effective) [4]: 318** %
Antihyperalgesic Effectiveness (% Effective) [5]: 182** %
Antihyperalgesic Effectiveness (% Effective) [6]: 48%
Antihyperalgesic Effectiveness (% Effective) [7]: 198** %
Antihyperalgesic Effectiveness (% Effective) [8]: 69%
anti-hyperalgesic effect against a thermal stimulation challenge: anti-hyperalgesic effect

NC(=O)OC[C@@H](O)c1ccccc1Cl [Formula (Ib)]
Antihyperalgesic Effectiveness (% Effective) [1]: 79%
Antihyperalgesic Effectiveness (% Effective) [2]: 53%
Antihyperalgesic Effectiveness (% Effective) [3]: 59%
Antihyperalgesic Effectiveness (% Effective) [4]: 109%
Antihyperalgesic Effectiveness (% Effective) [5]: 107%
Antihyperalgesic Effectiveness (% Effective) [6]: 43%
Antihyperalgesic Effectiveness (% Effective) [7]: 314** %
Antihyperalgesic Effectiveness (% Effective) [8]: 151%
anti-hyperalgesic effect against a thermal stimulation challenge: anti-hyperalgesic effect
